# According to patent US7932270B2 (Cytokinetics, Inc., priority 2006, dated 2011):
# Biological target: T1, chicken gizzard smooth muscle myosin subfragment-1 chemically crosslinked to cardiac or skeletal actin (Gallus gallus, UniProt P10587)
# T1 construct: chicken gizzard smooth muscle myosin subfragment-1; from tissue; host or cells: chicken gizzard
# Test: Smooth muscle myosin ATPase dose response assay (pyruvate kinase/horseradish peroxidase/pyruvate oxidase-coupled, amplex red fluorescence)
# Format: biochemical
# Details: read-out: IC50 Arithmetic Mean
# Procedure: In Vitro Model of Dose Dependent Smooth Muscle Myosin ATPase Modulation
# Screening assays were performed using a pyruvate kinase and lactate dehydrogenase-coupled ATPase assay containing the following reagents: Potassium PIPES (50 mM), MgCl2 (3 mM), KCl (100 mM), ATP (0.15 mM), DTT (1 mM), BSA (0.1 mg/ml), NADH (0.5 mM), PEP (1.5 mM), pyruvate kinase (4 U/ml), lactate dehydrogenase (8 U/ml), and antifoam (50 ppm) (concentrations expressed are final assay concentrations). The pH was adjusted to 6.80 at 22° C. by addition of potassium hydroxide. Lead optimization assays were performed with a more sensitive pyruvate kinase/horseradish peroxidase/pyruvate oxidase-coupled ATPase assay containing the following reagents: Potassium PIPES (12 mM), MgCl2 (2 mM), KCl (100 mM), ATP (0.15 mM), BSA (0.05 mg/ml), potassium phosphate (2 mM), amplex red (0.1 mM), PEP (0.1 mM), pyruvate kinase (4 U/ml), horseradish peroxidase (0.5 U/ml), pyruvate oxidase (0.5 U/ml), and antifoam (50 ppm) (concentrations expressed are final assay concentrations). The pH was adjusted to 7.00 at 22° C. by addition of potassium hydroxide.
# The protein components specific to this assay are chicken gizzard smooth muscle myosin subfragment-1 that has been chemically crosslinked to either cardiac or skeletal actin using an excess of 1-Ethyl-3-[3-dimethylaminopropyl]carbodiimide hydrochloride and N-hydroxysuccinimide. The exact concentration of the crosslinked smooth muscle myosin in the assay is determined empirically, by titration to achieve a desired rate of ATP hydrolysis. The concentration varies between protein preparations due to variations in the fraction of active molecules in each preparation.
# Compound dose response assays are performed by first preparing a dilution series of test compound, each with an assay mixture containing potassium PIPES, MgCl2, KCl, ATP, BSA, potassium phosphate, amplex red, PEP, crosslinked smooth muscle actomyosin (subfragment-1), antifoam, and water. The assay is started by adding an equal volume of solution containing potassium Pipes, MgCl2, KCl, BSA, potassium phosphate, pyruvate kinase, horseradish peroxidase, pyruvate oxidase, antifoam, and water. ATP hydrolysis is monitored by measuring the fluorescence of amplex red (excitation at 480 nm, emission at 615 nm). The resulting dose response curve is fit by the 4 parameter equation y=Bottom+((Top-Bottom)/(1+((IC50/X)^Hill))). The IC50 is defined as the concentration at which ATPase activity is midway between the top and bottom of the dose response curve.
# T1 sequence (P02607 2-151): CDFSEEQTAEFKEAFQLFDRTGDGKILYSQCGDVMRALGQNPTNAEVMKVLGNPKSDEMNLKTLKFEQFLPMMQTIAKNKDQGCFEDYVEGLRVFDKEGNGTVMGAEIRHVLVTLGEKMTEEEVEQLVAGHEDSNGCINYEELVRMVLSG
# T1 sequence (P10587 84-789): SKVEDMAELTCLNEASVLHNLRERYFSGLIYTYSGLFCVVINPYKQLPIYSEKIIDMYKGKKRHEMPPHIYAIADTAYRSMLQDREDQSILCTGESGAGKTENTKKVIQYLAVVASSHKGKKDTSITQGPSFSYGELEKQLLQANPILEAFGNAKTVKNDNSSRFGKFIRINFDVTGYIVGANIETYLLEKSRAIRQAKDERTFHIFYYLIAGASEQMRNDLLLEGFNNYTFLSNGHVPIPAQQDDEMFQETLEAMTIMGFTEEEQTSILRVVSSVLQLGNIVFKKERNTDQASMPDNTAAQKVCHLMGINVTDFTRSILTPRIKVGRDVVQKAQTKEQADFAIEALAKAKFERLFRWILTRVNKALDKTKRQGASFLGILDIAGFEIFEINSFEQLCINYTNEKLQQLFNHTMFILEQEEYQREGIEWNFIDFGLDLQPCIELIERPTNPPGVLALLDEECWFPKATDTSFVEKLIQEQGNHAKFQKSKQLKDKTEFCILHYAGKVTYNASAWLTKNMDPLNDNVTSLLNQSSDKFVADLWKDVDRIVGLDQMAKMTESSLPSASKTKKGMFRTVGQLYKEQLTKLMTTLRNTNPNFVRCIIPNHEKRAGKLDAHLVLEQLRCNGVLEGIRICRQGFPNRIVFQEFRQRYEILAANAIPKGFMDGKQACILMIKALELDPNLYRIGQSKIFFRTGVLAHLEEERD
row,IC50 [nM],Structure (SMILES)
1,383,N#Cc1ccccc1-c1ccc(C(=O)NCC2CCCCCN2C(=O)CCCN)c(NCCc2cccc(F)c2)n1 (centres unmarked) [N-{[1-(4-aminobutanoyl)azaperhydroepin-2-yl]methyl}(6-(2-cyanophenyl)-2-{[2-(3-fluorophenyl)ethyl]amino}(3-pyridyl))carboxamide]
2,64,COC(=O)c1cccc(CNC(=O)c2ccc(-c3ccccc3C#N)nc2NCCc2cccc(F)c2)n1 [methyl 6-{[(6-(2-cyanophenyl)-2-{[2-(3-fluorophenyl)ethyl]amino}-3-pyridyl)carbonylamino]methyl}pyridine-2-carboxylate]
3,1240,CC(C)C[C@@H](N)CNC(=O)c1ccc(-c2ccccc2C#N)nc1NCCc1cccc(F)c1 [N-((2R)-2-amino-4-methylpentyl)(6-(2-cyanophenyl)-2-{[2-(3-fluorophenyl)ethyl]amino}(3-pyridyl))carboxamide]
4,5480,N#Cc1ccccc1-c1ccc(C(=O)NC[C@H]2CNCCN2C(=O)CCCN)c(NCCc2cccc(F)c2)n1 [N-{[(2R)-1-(4-aminobutanoyl)piperazin-2-yl]methyl}(6-(2-cyanophenyl)-2-{[2-(3-fluorophenyl)ethyl]amino}(3-pyridyl))carboxamide]
5,41,COc1ccc(C#N)c(-c2ccc(C(=O)NCc3cccnc3)c(NCCc3cccc(F)c3)n2)c1 [(6-(2-cyano-5-methoxyphenyl)-2-{[2-(3-fluorophenyl)ethyl]amino}(3-pyridyl))-N-(3-pyridylmethyl)carboxamide]
6,103,N#Cc1ccccc1-c1nc(NCCc2cccc(F)c2)c(C(=O)NC[C@H]2CCCN2)cc1F [N-[((2R)pyrrolidin-2-yl)methyl](6-(2-cyanophenyl)-5-fluoro-2-{[2-(3-fluorophenyl)ethyl]amino}(3-pyridyl))carboxamide]
7,107,O=C(NCc1cccnc1)c1ccc(-c2ccccc2)nc1NCCc1ccccc1F [(2-{[2-(2-fluorophenyl)ethyl]amino}-6-phenyl(3-pyridyl))-N-(3-pyridylmethyl)carboxamide]
8,1970,N#Cc1ccccc1-c1ccc(C(=O)NC[C@H]2CCCNC2)c(NCCc2cccc(F)c2)n1 [N-[((3S)(3-piperidyl))methyl](6-(2-cyanophenyl)-2-{[2-(3-fluorophenyl)ethyl]amino}(3-pyridyl))carboxamide]
9,87,COc1ncccc1CNC(=O)c1ccc(-c2ccccc2C#N)nc1NCCc1cccc(F)c1 [(6-(2-cyanophenyl)-2-{[2-(3-fluorophenyl)ethyl]amino}(3-pyridyl))-N-[(2-methoxy(3-pyridyl))methyl]carboxamide]
10,65,N#Cc1ccccc1-c1ccc(C(=O)NCc2ccn(CCCN)n2)c(NCCc2cccc(F)c2)n1 [N-{[1-(3-aminopropyl)pyrazol-3-yl]methyl}(6-(2-cyanophenyl)-2-{[2-(3-fluorophenyl)ethyl]amino}(3-pyridyl))carboxamide]
11,2150,N#Cc1ccccc1-c1ccc(C(=O)NC[C@@H]2CCCNC2)c(NCCc2cccc(F)c2)n1 [N-[((3R)(3-piperidyl))methyl](6-(2-cyanophenyl)-2-{[2-(3-fluorophenyl)ethyl]amino}(3-pyridyl))carboxamide]
12,2430,O=C(NCc1cccnc1)c1ccc(-c2ccc(CO)cc2)nc1NCCc1ccccn1 [{6-[4-(hydroxymethyl)phenyl]-2-[(2-(2-pyridyl)ethyl)amino](3-pyridyl)}-N-(3-pyridylmethyl)carboxamide]

row,Structure (SMILES),IC50 [nM]
1,CC(C)(C)OC(=O)NCc1ncccc1CNC(=O)c1cc(F)c(-c2cn[nH]c2)nc1NCCc1cccc(F)c1 [N-[(2-{[(tert-butoxy)carbonylamino]methyl}(3-pyridyl))methyl](5-fluoro-2-{[2-(3-fluorophenyl)ethyl]amino}-6-pyrazol-4-yl(3-pyridyl))carboxamide],488
2,CC(C)(C)OC(=O)NCCCN1CCC(CNC(=O)c2ccc(-c3cn[nH]c3)nc2NCCc2cccc(F)c2)C1=O (centres unmarked) [N-[(1-{3-[(tert-butoxy)carbonylamino]propyl}-2-oxopyrrolidin-3-yl)methyl](2-{[2-(3-fluorophenyl)ethyl]amino}-6-pyrazol-4-yl(3-pyridyl))carboxamide],589
